Results: patent publication US6372894B1, “Cycolalkylated B-glucoside” (Nihon Shokuhin Kako Co., Ltd., priority 1999, dated 2002)

Key:
[1] = target: β-glucosidase derived from Trichoderma viride (Trichoderma viride, UniProt Q6UJY0); assay: β-Glucosidase inhibition test (pNP-β-Glc), T. viride enzyme; format: biochemical
Experimental: (§1) β-Glucosidase inhibition test was performed as follows. 10 mM p-nitrophenyl-p-glucoside (100 μl, abbreviated as pNP-β-Glc hereinafter), 1 M sodium acetate buffer (pH 5.0, 50 μl), pure-water, and 100 mM inhibitor (10 μl) were taken into a short test tube so that the mixture should have a total volume of 800 μl, and preincubated at 40° C. for 5 minutes. After the incubation, the obtained mixture was added with 50 μl of enzyme solution diluted to a suitable concentration, and allowed to react at 40° C. After 10 minutes, the enzyme was inactivated by adding 500 μl of 1 M sodium carbonate to the obtained reaction mixture, and the absorbance at 405 nm was measured and used for calculation of the amount of free p-nitrophenol. As the inhibitor, cyclopropylmethyl-β-glucoside (CPAM-β-Glc), cyclopentyl-β-glucoside (CPE-β-Glc), and cyclopentylmethyl-β-glucoside (CPEM-β-Glc) all prepared by the methods of Examples 1 and 2 were used. As the β-glucosidase, chromatographically purified preparations derived from Aspergillus niger, Trichoderma viride, and Almond (all from SIGMA) were used.

gypsophila cut flower = assay: Aromatic substance formation inhibition effect in cut flowers, organoleptic test (gypsophila); format: in vivo; conditions: 0.13% (w/v, 5 mM) aqueous solution, after one day, all of ten expert panelists, versus water
Experimental: (§2) A 0.13% (w/v, 5 mM) aqueous solution of the CPEM-β-Glc obtained in Example 2 was prepared. The obtained aqueous solution (300 ml) was introduced into an Erlenmeyer flask, and lily, chrysanthemum, and gypsophila were put into it one for each. On the other hand, as control, the flowers were similarly put into water without the CPEM-β-Glc. After 1, 2 and 4 days, organoleptic test was performed by ten expert panelists as for the aroma emitted from these cut flowers.

[2] = target: β-glucosidase derived from Aspergillus niger (Aspergillus niger, UniProt A2RAL4); assay: β-Glucosidase inhibition test (pNP-β-Glc), A. niger enzyme; format: biochemical
Experimental: as §1

chrysanthemum cut flower = assay: Aromatic substance formation inhibition effect in cut flowers, organoleptic test (chrysanthemum); format: in vivo; conditions: 0.13% (w/v, 5 mM) aqueous solution, after one day, all of ten expert panelists, versus water
Experimental: as §2

lily cut flower = assay: Aromatic substance formation inhibition effect in cut flowers, organoleptic test (lily); format: in vivo; conditions: 0.13% (w/v, 5 mM) aqueous solution, after one day, all of ten expert panelists, versus water
Experimental: as §2

[3] = system: β-glucosidase derived from Almond; assay: β-Glucosidase inhibition test (pNP-β-Glc), almond enzyme; format: biochemical; conditions: inhibitor concentration of 1.25 mM
Experimental: as §1

[4] = system: lily, chrysanthemum, and gypsophila cut flowers; assay: Freshness of cut flowers in the aroma test; format: in vivo; conditions: 0.13% (w/v, 5 mM) aqueous solution
Experimental: as §2

[5] = system: pNP-β-Glc activity of rose petal crude enzyme solution; assay: Inhibition test for rose crude enzyme; format: biochemical, Rosa gybrida CV. Wendy
Experimental: as §1
Only petals (about 70 g) were collected from about ten marketed roses (variety; Rosa gybrida CV. Wendy), added with acetone (500 ml) cooled to −20° C., and pulverized by a homogenizer while cooled with dry ice. The obtained pulverized mixture was filtered through a Buchner funnel put with a No. 2 filter paper sheet, and sufficiently washed with acetone at −20° C. The obtained filtrate was dried in a desiccator under reduced pressure (room temperature, 3 hours) to obtain 6 g of crude enzyme powder. This powder was added to 100 mM sodium phosphate buffer (pH 7.0, 120 ml) and stirred at 4° C. for 3 hours, and the insoluble matter was removed by centrifugation. The filtrate was subjected to ultrafiltration utilizing an ultrafiltration membrane PM-10 (Amicon) to finally afford 15 ml of crude enzyme solution.
In the same manner as in Example 3, the inhibition activity of the CPEM-β-Glc obtained in Example 2 for the pNP-β-Glc activity of the above crude enzyme solution was measured. […]

Compound: OCC1OC(OCC2CCCC2)C(O)C(O)C1O (stereo not drawn) [CPEM-β-Glc, cyclopentylmethyl-β-glucoside]
- inhibition of β-glucosidase, in words ([1]; T. viride enzyme, inhibitor concentration of 1.25 mM): no inhibition
- IC50 ([1]; T. viride β-glucosidase, concentration varied from 0 to 5 mM, read-out: 50% inhibition concentration): 11.5 mM
- aroma emitted from cut flowers, organoleptic test (gypsophila cut flower): distinctly reduced
- inhibition of β-glucosidase, in words ([2]; A. niger enzyme, inhibitor concentration of 1.25 mM): relatively weak inhibition
- IC50 ([2]; A. niger β-glucosidase, concentration varied from 0 to 5 mM, read-out: 50% inhibition concentration): 12.6 mM
- aroma emitted from cut flowers, organoleptic test (chrysanthemum cut flower): distinctly reduced
- aroma emitted from cut flowers, organoleptic test (lily cut flower): distinctly reduced
- inhibition of β-glucosidase, in words [3]: strongly inhibited
- freshness of the cut flowers, added versus not added [4]: No difference in freshness
- inhibition activity ([5]; at 3 mM): about 50%
- inhibition activity ([5]; at 4 mM): about 70%
- inhibition activity ([5]; at 5 mM): about 90%
